# Experimental data from ChEMBL document CHEMBL3425491, “Development of novel ACK1/TNK2 inhibitors using a fragment-based approach” (J Med Chem, 2015).
# Activity calls are given as the source filed them. The calls are words filed in the database; no cut-off is given here.
# Experiments:
# [1] = target: T1, Activated CDC42 kinase 1 (Homo sapiens, UniProt Q07912); assay: Inhibition of human ACK1 kinase activity using biotinylated ATGRYYAMKIL - AKT peptide substrate assessed as phosphorylation at 10 uM by ELISA; format: single protein
# Target sequence in this assay (Q07912 whole entry, looked up): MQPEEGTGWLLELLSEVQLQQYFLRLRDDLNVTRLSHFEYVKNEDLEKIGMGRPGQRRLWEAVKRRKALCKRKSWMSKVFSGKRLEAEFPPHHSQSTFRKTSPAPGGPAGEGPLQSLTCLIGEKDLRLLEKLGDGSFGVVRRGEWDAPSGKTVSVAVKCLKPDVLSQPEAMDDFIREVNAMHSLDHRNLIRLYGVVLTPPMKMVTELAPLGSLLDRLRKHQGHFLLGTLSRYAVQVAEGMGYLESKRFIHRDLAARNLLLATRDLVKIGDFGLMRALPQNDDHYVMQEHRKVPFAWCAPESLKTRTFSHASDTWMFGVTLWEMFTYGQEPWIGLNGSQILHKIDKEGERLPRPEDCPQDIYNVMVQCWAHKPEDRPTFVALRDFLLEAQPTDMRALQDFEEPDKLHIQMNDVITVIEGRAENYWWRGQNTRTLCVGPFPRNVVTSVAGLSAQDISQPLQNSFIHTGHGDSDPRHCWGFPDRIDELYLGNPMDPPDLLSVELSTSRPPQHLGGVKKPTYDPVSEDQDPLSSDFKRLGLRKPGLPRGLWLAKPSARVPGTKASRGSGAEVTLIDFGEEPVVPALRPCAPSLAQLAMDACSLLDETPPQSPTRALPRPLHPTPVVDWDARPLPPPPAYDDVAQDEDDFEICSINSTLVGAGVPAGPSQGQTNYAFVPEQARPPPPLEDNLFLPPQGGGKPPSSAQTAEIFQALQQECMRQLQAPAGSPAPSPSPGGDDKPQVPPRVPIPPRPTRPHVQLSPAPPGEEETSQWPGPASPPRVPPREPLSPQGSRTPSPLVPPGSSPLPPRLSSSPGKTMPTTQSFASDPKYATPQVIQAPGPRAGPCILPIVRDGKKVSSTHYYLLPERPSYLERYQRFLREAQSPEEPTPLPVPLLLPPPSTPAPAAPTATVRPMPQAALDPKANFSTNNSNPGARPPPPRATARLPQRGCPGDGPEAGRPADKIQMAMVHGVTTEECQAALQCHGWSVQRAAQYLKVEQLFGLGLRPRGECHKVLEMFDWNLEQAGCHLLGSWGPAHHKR
# [2] = test system: LAPC4; assay: Anticancer activity against human LAPC4 cells assessed as inhibition of cell growth up to 10 uM after 72 hrs by trypan blue exclusion assay; format: functional, cell-based
# [3] = cells; conditions: Homo sapiens, VCaP, 72 h
# [4] = Solubility in PBS with 10% DMSO; format: physicochemical; conditions: buffer
# [5] = target: T1, Activated CDC42 kinase 1; assay: Inhibition of ACK1 kinase (unknown origin)
# Target sequence in this assay (Q07912 whole entry): as the sequence (Q07912 whole entry, looked up) above
# [6] = test system: Plasma; assay: Half life in human plasma; format: ADME, cell-free
# [7] = target: T2, Tyrosine-protein kinase JAK2 (Homo sapiens, UniProt O60674); assay: Inhibition of human JAK2 using poly[Glu:Tyr] (4:1) peptide substrate at 1 uM by 33P Hotspot assay
# T2 sequence (O60674 whole entry): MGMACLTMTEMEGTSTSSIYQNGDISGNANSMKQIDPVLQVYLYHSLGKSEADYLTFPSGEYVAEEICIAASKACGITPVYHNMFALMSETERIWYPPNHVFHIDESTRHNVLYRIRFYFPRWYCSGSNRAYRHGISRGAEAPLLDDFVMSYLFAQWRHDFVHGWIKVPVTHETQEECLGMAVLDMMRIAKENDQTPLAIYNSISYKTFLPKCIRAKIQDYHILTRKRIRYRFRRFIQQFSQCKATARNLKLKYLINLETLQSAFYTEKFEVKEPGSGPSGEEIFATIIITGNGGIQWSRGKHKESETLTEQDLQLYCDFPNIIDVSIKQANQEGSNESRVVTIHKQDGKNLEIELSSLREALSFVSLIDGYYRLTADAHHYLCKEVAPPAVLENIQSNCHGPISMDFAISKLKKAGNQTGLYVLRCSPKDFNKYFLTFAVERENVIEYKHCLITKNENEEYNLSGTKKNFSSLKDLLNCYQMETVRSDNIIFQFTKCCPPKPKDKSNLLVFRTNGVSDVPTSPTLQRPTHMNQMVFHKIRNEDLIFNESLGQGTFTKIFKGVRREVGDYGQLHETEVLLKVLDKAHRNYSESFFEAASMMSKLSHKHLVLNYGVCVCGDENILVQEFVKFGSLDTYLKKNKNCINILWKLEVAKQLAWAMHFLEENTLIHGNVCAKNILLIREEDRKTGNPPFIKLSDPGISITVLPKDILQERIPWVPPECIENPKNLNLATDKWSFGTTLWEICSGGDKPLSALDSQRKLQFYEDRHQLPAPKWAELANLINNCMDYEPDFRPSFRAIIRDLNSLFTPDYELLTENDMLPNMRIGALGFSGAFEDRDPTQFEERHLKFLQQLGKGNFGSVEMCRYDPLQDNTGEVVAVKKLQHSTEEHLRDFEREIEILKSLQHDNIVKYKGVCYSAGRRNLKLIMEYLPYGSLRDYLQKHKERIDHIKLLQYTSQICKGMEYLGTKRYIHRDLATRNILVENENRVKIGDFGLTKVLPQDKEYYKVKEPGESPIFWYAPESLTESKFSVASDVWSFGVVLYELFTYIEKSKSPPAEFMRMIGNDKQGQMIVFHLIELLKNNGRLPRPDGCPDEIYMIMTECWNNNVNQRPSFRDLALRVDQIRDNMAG
# [8] = target: Hepatocyte growth factor receptor (Homo sapiens) (UniProt P08581); assay: Inhibition of human c-MET using KKKSPGEYVNIEFG peptide substrate at 1 uM by 33P Hotspot assay
# [9] = target: Tyrosine-protein kinase BTK (Homo sapiens) (UniProt Q06187); assay: Inhibition of human BTK using […] peptide substrate at 1 uM by 33P Hotspot assay
# [10] = target: Proto-oncogene tyrosine-protein kinase ROS (Homo sapiens, UniProt P08922); assay: Inhibition of human ROS/ROS1 using KKKSPGEYVNIEFG peptide substrate by 33P Hotspot assay
# [11] = target: Serine/threonine-protein kinase pim-1 (Homo sapiens) (UniProt P11309); assay: Inhibition of human PIM1 using KKRNRTLTK peptide substrate at 1 uM by 33P Hotspot assay
# [12] = target: Insulin receptor (Homo sapiens) (UniProt P06213); assay: Inhibition of human IR using poly[Glu:Tyr] (4:1) peptide substrate at 1 uM by 33P Hotspot assay
# [13] = target: Receptor tyrosine-protein kinase erbB-2 (Homo sapiens) (UniProt P04626); assay: Inhibition of human ERBB2/HER2 using poly[Glu:Tyr] (4:1) peptide substrate at 1 uM by 33P Hotspot assay
# [14] = target: Vascular endothelial growth factor receptor 2 (Homo sapiens) (UniProt P35968); assay: Inhibition of human KDR/VEGFR2 using poly[Glu:Tyr] (4:1) peptide substrate at 1 uM by 33P Hotspot assay
# [15] = target: Mitogen-activated protein kinase 3 (Homo sapiens) (UniProt P27361); assay: Inhibition of human ERK1 using myelin basic protein substrate at 1 uM by 33P Hotspot assay
# [16] = target: Tyrosine-protein kinase FRK (Homo sapiens) (UniProt P42685); assay: Inhibition of human FRK/PTK5 using poly[Glu:Tyr] (4:1) peptide substrate at 1 uM by 33P Hotspot assay
# [17] = target: T3, Non-receptor tyrosine-protein kinase TYK2 (Homo sapiens, UniProt P29597); assay: Inhibition of human TYK2 using KKSRGDYMTMQIG peptide substrate at 1 uM by 33P Hotspot assay
# T3 sequence (P29597 whole entry): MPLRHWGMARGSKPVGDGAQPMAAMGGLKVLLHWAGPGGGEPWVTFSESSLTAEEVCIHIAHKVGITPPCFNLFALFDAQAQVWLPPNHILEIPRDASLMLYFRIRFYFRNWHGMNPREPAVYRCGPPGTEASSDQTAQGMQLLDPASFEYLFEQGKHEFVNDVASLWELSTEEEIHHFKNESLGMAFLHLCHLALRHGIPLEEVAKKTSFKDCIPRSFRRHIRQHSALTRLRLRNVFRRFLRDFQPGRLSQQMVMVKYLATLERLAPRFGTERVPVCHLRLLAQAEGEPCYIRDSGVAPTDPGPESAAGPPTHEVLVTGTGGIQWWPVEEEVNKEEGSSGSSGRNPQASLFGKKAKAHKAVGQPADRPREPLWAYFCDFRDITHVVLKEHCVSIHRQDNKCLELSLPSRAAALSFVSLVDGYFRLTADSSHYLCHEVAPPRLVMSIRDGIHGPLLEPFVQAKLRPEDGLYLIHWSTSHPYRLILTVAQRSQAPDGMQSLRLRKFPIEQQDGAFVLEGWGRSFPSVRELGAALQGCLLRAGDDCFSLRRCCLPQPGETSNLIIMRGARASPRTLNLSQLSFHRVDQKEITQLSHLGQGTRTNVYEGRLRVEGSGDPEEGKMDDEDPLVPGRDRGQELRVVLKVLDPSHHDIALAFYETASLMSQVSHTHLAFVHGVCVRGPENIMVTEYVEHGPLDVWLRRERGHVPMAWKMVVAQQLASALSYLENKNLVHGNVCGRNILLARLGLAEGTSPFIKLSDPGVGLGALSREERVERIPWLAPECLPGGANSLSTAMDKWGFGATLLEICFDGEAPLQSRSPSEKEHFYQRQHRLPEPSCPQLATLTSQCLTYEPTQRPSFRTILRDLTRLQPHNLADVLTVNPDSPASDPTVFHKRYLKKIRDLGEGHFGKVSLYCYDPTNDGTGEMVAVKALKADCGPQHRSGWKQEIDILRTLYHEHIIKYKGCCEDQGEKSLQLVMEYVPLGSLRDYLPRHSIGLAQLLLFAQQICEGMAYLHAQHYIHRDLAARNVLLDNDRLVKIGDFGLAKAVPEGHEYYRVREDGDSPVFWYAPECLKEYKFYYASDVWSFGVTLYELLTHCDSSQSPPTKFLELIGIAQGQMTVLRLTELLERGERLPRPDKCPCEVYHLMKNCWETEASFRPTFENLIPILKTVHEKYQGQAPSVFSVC
# [18] = target: Tyrosine-protein kinase Lck (Homo sapiens, UniProt P06239)
# Sequence of Tyrosine-protein kinase Lck (P06239 whole entry): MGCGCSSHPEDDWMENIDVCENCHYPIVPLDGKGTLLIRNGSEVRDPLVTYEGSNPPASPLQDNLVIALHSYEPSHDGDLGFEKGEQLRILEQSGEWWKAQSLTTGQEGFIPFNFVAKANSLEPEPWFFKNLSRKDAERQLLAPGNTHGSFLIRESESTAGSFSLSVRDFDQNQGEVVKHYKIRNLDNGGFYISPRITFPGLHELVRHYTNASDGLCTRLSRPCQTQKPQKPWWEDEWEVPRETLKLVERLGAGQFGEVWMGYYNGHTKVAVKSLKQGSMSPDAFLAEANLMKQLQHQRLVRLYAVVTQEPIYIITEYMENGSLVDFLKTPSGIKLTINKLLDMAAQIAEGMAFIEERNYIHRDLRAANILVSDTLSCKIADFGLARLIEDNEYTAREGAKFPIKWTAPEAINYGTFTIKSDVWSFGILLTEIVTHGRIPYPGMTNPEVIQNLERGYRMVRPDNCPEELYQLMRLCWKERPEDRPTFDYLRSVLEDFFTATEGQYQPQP
# [19] = target: Epidermal growth factor receptor (Homo sapiens) (UniProt P00533); assay: Inhibition of human EGFR using poly[Glu:Tyr] (4:1) peptide substrate at 1 uM by 33P Hotspot assay
# [20] = target: Inhibitor of nuclear factor kappa-B kinase subunit alpha (Homo sapiens) (UniProt O15111); assay: Inhibition of human IKKa/CHUK using KKKKERLLDDRHDSGLDSMKDEE peptide substrate at 1 uM by 33P Hotspot assay
# [21] = target: T2, Tyrosine-protein kinase JAK2; assay: Inhibition of human JAK2 using poly[Glu:Tyr] (4:1) peptide substrate by 33P Hotspot assay
# [22] = target: High affinity nerve growth factor receptor (Homo sapiens) (UniProt P04629); assay: Inhibition of human TRKA using poly[Glu:Tyr] (4:1) peptide substrate at 1 uM by 33P Hotspot assay
# [23] = target: T4, Fibroblast growth factor receptor 1 (Homo sapiens, UniProt P11362); assay: Inhibition of human FGFR1 using KKKSPGEYVNIEFG peptide substrate at 1 uM by 33P Hotspot assay
# [24] = target: Mitogen-activated protein kinase kinase kinase 8 (Homo sapiens) (UniProt P41279); assay: Inhibition of human COT1/MAP3K8 using MEK1 (K97R) substrate at 1 uM by 33P Hotspot assay
# [25] = target: Platelet-derived growth factor receptor alpha (Homo sapiens) (UniProt P16234); assay: Inhibition of human PDGFRalpha using poly[Glu:Tyr] (4:1) peptide substrate at 1 uM by 33P Hotspot assay
# [26] = target: Serine/threonine-protein kinase Chk1 (Homo sapiens, UniProt O14757); assay: Inhibition of human CHK1 using KKKVSRSGLYRSPSMPENLNRPR peptide substrate by 33P Hotspot assay
# Sequence of Serine/threonine-protein kinase Chk1 (O14757 whole entry): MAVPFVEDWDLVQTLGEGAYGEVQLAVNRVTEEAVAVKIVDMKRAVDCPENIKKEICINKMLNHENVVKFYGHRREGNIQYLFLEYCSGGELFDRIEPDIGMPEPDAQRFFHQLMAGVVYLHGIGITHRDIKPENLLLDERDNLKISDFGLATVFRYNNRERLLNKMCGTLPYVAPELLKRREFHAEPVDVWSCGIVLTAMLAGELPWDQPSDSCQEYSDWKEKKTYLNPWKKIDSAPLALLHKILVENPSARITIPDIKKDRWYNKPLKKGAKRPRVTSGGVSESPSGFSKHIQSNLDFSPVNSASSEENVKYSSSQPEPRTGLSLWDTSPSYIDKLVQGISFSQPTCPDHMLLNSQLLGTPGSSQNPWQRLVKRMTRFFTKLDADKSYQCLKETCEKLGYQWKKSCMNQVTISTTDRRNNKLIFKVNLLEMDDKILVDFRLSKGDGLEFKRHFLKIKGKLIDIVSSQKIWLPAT
# [27] = target: Tyrosine-protein kinase receptor UFO (Homo sapiens) (UniProt P30530); assay: Inhibition of human AXL using EAIYAAPFAKKK peptide substrate at 1 uM by 33P Hotspot assay
# [28] = target: Serine/threonine-protein kinase Sgk1 (Homo sapiens) (UniProt O00141); assay: Inhibition of human SGK1 using KGSGSGRPRTSSFAEG peptide substrate at 1 uM by 33P Hotspot assay
# [29] = target: Ephrin type-A receptor 2 (Homo sapiens) (UniProt P29317); assay: Inhibition of human EPHA2 using poly[Glu:Tyr] (4:1) peptide substrate at 1 uM by 33P Hotspot assay
# [30] = target: Wee1-like protein kinase (Homo sapiens) (UniProt P30291); assay: Inhibition of human WEE1 using myelin basic protein substrate at 1 uM by 33P Hotspot assay
# [31] = target: Serine/threonine-protein kinase Chk1 (Homo sapiens) (UniProt O14757); assay: Inhibition of human CHK1 using KKKVSRSGLYRSPSMPENLNRPR peptide substrate at 1 uM by 33P Hotspot assay
# Sequence of Serine/threonine-protein kinase Chk1 (Homo sapiens) (O14757 whole entry): as the sequence (O14757 whole entry) above
# [32] = target: RAF proto-oncogene serine/threonine-protein kinase (Homo sapiens) (UniProt P04049); assay: Inhibition of human RAF1 using MEK1 (K97R) peptide substrate at 1 uM by 33P Hotspot assay
# [33] = target: T3, Non-receptor tyrosine-protein kinase TYK2; assay: Inhibition of human TYK2 using KKSRGDYMTMQIG peptide substrate by 33P Hotspot assay
# [34] = target: T4, Fibroblast growth factor receptor 1; assay: Inhibition of human FGFR1 using KKKSPGEYVNIEFG peptide substrate by 33P Hotspot assay
# [35] = target: Ribosomal protein S6 kinase beta-1 (Homo sapiens) (UniProt P23443); assay: Inhibition of human p70S6K/RPS6KB1 using KKRNRTLTK peptide substrate at 1 uM by 33P Hotspot assay
# [36] = target: Serine/threonine-protein kinase TBK1 (Homo sapiens) (UniProt Q9UHD2); assay: Inhibition of human TBK1 using KRRRAL[pS]VASLPGL peptide substrate at 1 uM by 33P Hotspot assay
# [37] = target: RAC-alpha serine/threonine-protein kinase (Homo sapiens) (UniProt P31749); assay: Inhibition of human AKT1 using KGSGSGRPRTSSFAEG peptide substrate at 1 uM by 33P Hotspot assay
# [38] = target: Tyrosine-protein kinase ABL1 (Homo sapiens, UniProt P00519); assay: Inhibition of human ABL1 using EAIYAAPFAKKK peptide substrate by 33P Hotspot assay
# [39] = target: Glycogen synthase kinase-3 alpha (Homo sapiens) (UniProt P49840); conditions: at 1 µM
# [40] = target: Serine/threonine-protein kinase mTOR (Homo sapiens) (UniProt P42345); assay: Inhibition of human mTOR/FRAP1 using 4EBP1 peptide substrate at 1 uM by 33P Hotspot assay
# [41] = target: Angiopoietin-1 receptor (Homo sapiens) (UniProt Q02763); assay: Inhibition of human TIE2/TEK using poly[Glu:Tyr] (4:1) peptide substrate at 1 uM by 33P Hotspot assay
# [42] = target: Tyrosine-protein kinase CSK (Homo sapiens) (UniProt P41240); assay: Inhibition of human CSK using poly[Glu:Tyr] (4:1) peptide substrate at 1 uM by 33P Hotspot assay
# Sequence of Tyrosine-protein kinase CSK (Homo sapiens) (P41240 2-450 limits assumed): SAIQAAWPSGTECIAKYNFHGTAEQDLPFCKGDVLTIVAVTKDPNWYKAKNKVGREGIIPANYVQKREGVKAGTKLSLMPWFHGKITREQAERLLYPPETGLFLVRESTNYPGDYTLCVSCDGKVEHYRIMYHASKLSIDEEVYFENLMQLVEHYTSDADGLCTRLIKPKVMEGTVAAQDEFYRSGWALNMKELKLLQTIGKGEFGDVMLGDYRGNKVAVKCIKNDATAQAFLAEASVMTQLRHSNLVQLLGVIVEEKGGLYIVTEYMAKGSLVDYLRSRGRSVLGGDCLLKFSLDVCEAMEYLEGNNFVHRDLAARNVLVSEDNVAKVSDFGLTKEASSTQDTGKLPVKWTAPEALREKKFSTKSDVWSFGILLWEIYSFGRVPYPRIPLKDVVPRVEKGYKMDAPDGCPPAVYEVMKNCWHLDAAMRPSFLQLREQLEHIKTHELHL
# [43] = test system: LNCaP; assay: cells; conditions: Homo sapiens, 72 h
smiles,measurement,setting,value
Brc1cnc(Nc2ccc(N3CCOCC3)cc2)nc1NCC1CCCO1 (racemic),inhibition,[1],89%
Brc1cnc(Nc2ccc(C3CCNCC3)cc2)nc1NCC1CCCO1 (racemic),inhibition,[1],84.5%
CN1CCN(c2ccc(Nc3ncc(Cl)c(NC[C@@H]4CCCO4)n3)cc2)CC1,inhibition,[2],Active
same,IC50,[3],4000 nM
same,solubility,[4],900 µg/mL
same,IC50,[5],82 nM
same,t1/2,[6],> 6 h
c1ccc(-c2oc3ncnc(NC[C@@H]4CCCO4)c3c2-c2ccccc2)cc1,inhibition,[2],Active
O=C(O)CCc1ccc(Nc2ncc(Cl)c(NCC3CCCO3)n2)cc1 (stereo unspecified),inhibition,[1],74%
O=C(Nc1c(F)cccc1Cl)c1cnc(Nc2ccc(O)c(F)c2)nc1NCC1CCCO1 (stereo unspecified),inhibition,[1],66%
Oc1ccc(Nc2ncc(Cl)c(NCC3CCCO3)n2)cc1 (stereo unspecified),inhibition,[1],65%
O=C(Nc1c(F)cccc1Cl)c1cnc(Nc2ccc(N3CCNCC3)cc2)nc1NCC1CCCO1 (racemic),inhibition,[1],89.5%
COc1ccc(Nc2ncc(Br)c(NCC3CCCO3)n2)cc1 (stereo unspecified),inhibition,[1],67%
O=C(O)Cc1ccc(Nc2ncc(Br)c(NCC3CCCO3)n2)cc1 (stereo unspecified),inhibition,[1],61%
O=C(O)C1CCN(c2ccc(Nc3ncc(Cl)c(NCC4CCCO4)n3)cc2)CC1 (racemic),inhibition,[1],93%
O=C(O)CCCc1ccc(Nc2ncc(Cl)c(NCC3CCCO3)n2)cc1 (stereo unspecified),inhibition,[1],60%
Oc1ccc(Nc2ncc(Br)c(NCC3CCCO3)n2)cc1F (stereo unspecified),inhibition,[1],76%
CN1CCN(c2ccc(Nc3ncc(Cl)c(NCC4CCCO4)n3)cc2)CC1 (racemic),inhibition,[1],90.5%
O=C(O)Cc1ccc(Nc2ncc(Cl)c(NCC3CCCO3)n2)cc1 (stereo unspecified),inhibition,[1],76.5%
CN(C)CCNC(=O)CCc1ccc(Nc2ncc(Cl)c(NCC3CCCO3)n2)cc1 (stereo unspecified),inhibition,[1],68%
CN1CCN(c2ccc(Nc3ncc(Cl)c(NC[C@H]4CCCO4)n3)cc2)CC1,inhibition,[2],Active
same,inhibition,[7],98.6%
same,inhibition,[8],23.1%
same,inhibition,[9],45.1%
same,IC50,[10],124 nM
same,inhibition,[11],3.6%
same,IC50,[3],2000 nM
same,inhibition,[12],46.6%
same,inhibition,[13],-1.1%
same,inhibition,[14],67.3%
same,inhibition,[15],1.9%
same,inhibition,[16],41.3%
same,inhibition,[17],98.9%
same,IC50,[18],136 nM
same,inhibition,[19],-2.8%
same,inhibition,[20],0.4%
same,IC50,[21],6 nM
same,inhibition,[22],63.2%
same,inhibition,[23],86.4%
same,inhibition,[24],-7.7%
same,inhibition,[25],42.7%
same,IC50,[26],154 nM
same,inhibition,[27],75.9%
same,inhibition,[28],26%
same,inhibition,[29],31.9%
same,inhibition,[30],12.4%
same,inhibition,[31],84.8%
same,solubility,[4],1000 µg/mL
same,inhibition,[32],-0.8%
same,IC50,[33],5 nM
same,IC50,[34],160 nM
same,inhibition,[35],24.1%
same,t1/2,[6],> 6 h
same,inhibition,[36],71.8%
same,inhibition,[37],4.7%
same,IC50,[38],206 nM
same,inhibition,[39],5.1%
same,inhibition,[40],-5.6%
same,inhibition,[41],32%
same,inhibition,[42],26.3%
same,IC50,[43],1800 nM
Clc1cnc(Nc2ccc(N3CCNCC3)cc2)nc1NCC1CCCO1 (racemic),inhibition,[1],82%
O=C(Nc1c(F)cccc1Cl)c1cnc(Nc2ccc(N3CCOCC3)cc2)nc1NCC1CCCO1 (racemic),inhibition,[1],82%
CN(C)CCOc1ccc(-c2oc3ncnc(NCC4SCCS4)c3c2-c2ccccc2)cc1,Ki,[18],138 nM
same,Ki,[5],0.3 nM
COC(C)(C)CCn1nc(Nc2c(C)cccc2C)c2cnc(Nc3ccccc3)nc21,IC50,[5],2 nM
COc1ccc(Nc2ncc(C(=O)Nc3c(F)cccc3Cl)c(NCC3CCCO3)n2)cc1 (racemic),inhibition,[1],68%
O=C(Nc1c(F)cccc1Cl)c1cnc(Nc2ccc(C3CCNCC3)cc2)nc1NCC1CCCO1 (racemic),inhibition,[1],97%
CN1CCN(c2ccc(Nc3ncc(Br)c(NCC4CCCO4)n3)cc2)CC1 (stereo unspecified),inhibition,[1],93%
O=C(Nc1c(F)cccc1Cl)c1cnc(Nc2ccc(O)cc2)nc1NCC1CCCO1 (racemic),inhibition,[1],85%
CN1CCN(c2ccc(Nc3ncc(C(=O)Nc4c(F)cccc4Cl)c(NCC4CCCO4)n3)cc2)CC1 (stereo unspecified),inhibition,[1],97%
CN1CCN(c2ccc(Nc3nccc(NCC4CCCO4)n3)cc2)CC1 (stereo unspecified),inhibition,[1],16%
O=C(O)CCc1ccc(Nc2ncc(Br)c(NCC3CCCO3)n2)cc1 (stereo unspecified),inhibition,[1],74.5%
O=C(O)CCC(=O)N1CCN(c2ccc(Nc3ncc(Br)c(NCC4CCCO4)n3)cc2)CC1 (stereo unspecified),inhibition,[1],92%
Clc1cnc(Nc2ccc(C3CCNCC3)cc2)nc1NCC1CCCO1 (racemic),inhibition,[1],79.5%
O=C(O)C1CCN(c2ccc(Nc3ncc(Br)c(NCC4CCCO4)n3)cc2)CC1 (racemic),inhibition,[1],85%
